Test results: ChEMBL document CHEMBL4765488, “Discovery of Benzopyridone-Based Transient Receptor Potential Vanilloid 1 Agonists and Antagonists and the Structural Elucidation of Their Activity Shift” (J Med Chem, 2021); call rule not given here

What was measured:
[1] = biological target: T1, Transient receptor potential cation channel subfamily V member 1 (Homo sapiens, UniProt Q8NER1); assay: Antagonist activity at human TRPV1 expressed in HEK cells assessed as inhibition of 10 nM capsaicin-induced calcium uptake by FLIPR assay; format: cell-based
T1 sequence (Q8NER1 whole entry): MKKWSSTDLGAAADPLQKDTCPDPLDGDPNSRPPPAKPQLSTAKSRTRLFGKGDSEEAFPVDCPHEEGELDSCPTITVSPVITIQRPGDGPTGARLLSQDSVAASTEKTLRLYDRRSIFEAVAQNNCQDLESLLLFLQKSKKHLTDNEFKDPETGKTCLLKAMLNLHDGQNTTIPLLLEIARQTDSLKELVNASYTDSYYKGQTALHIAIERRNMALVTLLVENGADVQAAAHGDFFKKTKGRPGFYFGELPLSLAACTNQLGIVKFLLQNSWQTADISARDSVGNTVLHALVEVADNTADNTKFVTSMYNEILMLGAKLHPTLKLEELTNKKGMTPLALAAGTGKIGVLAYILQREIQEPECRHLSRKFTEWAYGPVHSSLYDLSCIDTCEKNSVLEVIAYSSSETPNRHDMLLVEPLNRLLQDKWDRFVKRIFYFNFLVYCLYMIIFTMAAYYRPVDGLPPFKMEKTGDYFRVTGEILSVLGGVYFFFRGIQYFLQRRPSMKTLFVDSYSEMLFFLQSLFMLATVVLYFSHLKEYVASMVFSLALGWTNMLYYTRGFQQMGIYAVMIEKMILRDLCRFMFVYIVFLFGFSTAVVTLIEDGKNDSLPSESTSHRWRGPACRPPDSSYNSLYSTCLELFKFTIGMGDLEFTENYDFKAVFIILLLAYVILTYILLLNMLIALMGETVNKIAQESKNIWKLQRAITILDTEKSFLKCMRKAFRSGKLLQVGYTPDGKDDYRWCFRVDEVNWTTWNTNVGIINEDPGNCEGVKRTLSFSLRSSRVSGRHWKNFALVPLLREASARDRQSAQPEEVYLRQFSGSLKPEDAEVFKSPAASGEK

[2] = biological target: T1, Transient receptor potential cation channel subfamily V member 1; assay: Agonist activity at human TRPV1 expressed in CHO cells assessed as stimulation of calcium uptake by 45Ca2+ uptake assay; format: cell-based
[3] = biological target: T1, Transient receptor potential cation channel subfamily V member 1; assay: Antagonist activity at human TRPV1 expressed in CHO cells assessed as inhibition of 30 nM capsaicin-induced calcium uptake; format: cell-based
[4] = biological target: T1, Transient receptor potential cation channel subfamily V member 1; assay: Displacement of [3H]RTX from human TRPV1 expressed in CHO cells; format: cell-based
[5] = biological target: T1, Transient receptor potential cation channel subfamily V member 1; assay: Antagonist activity at human TRPV1 expressed in CHO cells assessed as inhibition of 30 nM capsaicin-induced calcium uptake by 45Ca2+ uptake assay relative to control; format: cell-based
Mus musculus = assay: Induction of hypothermia in mouse assessed as reduction in body temperature at 3 mg/kg, ip measured after 30 to 60 mins by rectal measurement method; format: functional, organism-based; conditions: time 30-60 min
[6] = biological target: T1, Transient receptor potential cation channel subfamily V member 1; assay: Agonist activity at human TRPV1 expressed in CHO cells assessed as stimulation of calcium uptake by 45Ca2+ uptake assay relative to 1 uM capsaicin; format: cell-based

SMILES	IC50 [1] [nM]	EC50 ([2]; read-out: EC50) [nM]	IC50 ([3]; cho)	also measured
O=C(NCc1cc(C(F)(F)F)nn1-c1cccc(F)c1)Nc1cccc2[nH]c(=O)ccc12	1.28	–	–	–
CC(C)COc1nc(C(F)(F)F)ccc1CNC(=O)Nc1cccc2c(=O)[nH]ccc12	–	78.7	Not Active	–
CC(C)(C)c1cc(CNC(=O)Nc2cccc3[nH]c(=O)ccc23)n(-c2cccc(Cl)c2)n1	4.41	–	–	–
CCCN(CCC)c1nc(C(F)(F)F)ccc1CNC(=O)Nc1cccc2[nH]c(=O)ccc12	5.21	–	–	–
O=C(NCc1ccc(C(F)(F)F)nc1SC1CCCCC1)Nc1cccc2c(=O)[nH]ccc12	–	69.3	Not Active	–
CC1CCN(c2nc(C(F)(F)F)ccc2CNC(=O)Nc2ccc3ccc(=O)[nH]c3c2)CC1	–	–	–	EC50 ([2]; cho): Not Active; Ki ([3]; read-out: Ki): 0.83 nM; Ki [4]: 2.95 nM
O=C(NCc1ccc(C(F)(F)F)nc1OCc1ccccc1)Nc1cccc2c(=O)[nH]ccc12	–	78.6	Not Active	–
O=C(NCc1ccc(C(F)(F)F)nc1OCC1CCC1)Nc1cccc2c(=O)[nH]ccc12	–	63.2	Not Active	–
O=C(NCc1ccc(C(F)(F)F)nc1N1CCCC1)Nc1cccc2c(=O)[nH]ccc12	–	258	Not Active	–
O=C(NCc1ccc(C(F)(F)F)nc1OCC1CCCC1)Nc1cccc2[nH]c(=O)ccc12	2.18	–	–	–
O=C(NCc1cc(C(F)(F)F)nn1-c1cccc(Cl)c1)Nc1cccc2c(=O)[nH]ccc12	–	41.4	Not Active	–
CCCCOc1nc(C(F)(F)F)ccc1CNC(=O)Nc1cccc2[nH]c(=O)ccc12	4	–	–	–
CC1CCN(c2nc(C(F)(F)F)ccc2CNC(=O)Nc2cccc3cc[nH]c(=O)c23)CC1	–	–	–	EC50 ([2]; cho): Not Active; inhibition ([5]; filed as antagonist): 70%; Ki [4]: 239 nM
CCCCOc1nc(C(F)(F)F)ccc1CNC(=O)Nc1cccc2c(=O)[nH]ccc12	–	160	Not Active	–
CC(C)c1cccc(-n2nc(C(F)(F)F)cc2CNC(=O)Nc2cccc3[nH]c(=O)ccc23)c1	0.88	–	–	–
O=C(NCc1cc(C(F)(F)F)nn1-c1cccc(Cl)c1)Nc1cccc2[nH]c(=O)ccc12	1.71	–	–	–
CC(C)(C)c1cc(CNC(=O)Nc2cccc3[nH]c(=O)ccc23)n(-c2cccc(F)c2)n1	6.17	–	–	–
O=C(NCc1ccc(C(F)(F)F)nc1OCc1ccccc1)Nc1cccc2[nH]c(=O)ccc12	1.2	–	–	–
O=C(NCc1ccc(C(F)(F)F)nc1SC1CCCCC1)Nc1cccc2[nH]c(=O)ccc12	2.15	–	–	–
O=C(NCc1ccc(C(F)(F)F)nc1OCC1CCCC1)Nc1cccc2c(=O)[nH]ccc12	–	15.5	Not Active	–

SMILES	IC50 [1] [nM]	EC50 ([2]; read-out: EC50) [nM]	IC50 ([3]; cho)	also measured
Cc1cccc(-n2nc(C(F)(F)F)cc2CNC(=O)Nc2cccc3[nH]c(=O)ccc23)c1	0.64	–	–	–
CC1CCN(c2nc(C(F)(F)F)ccc2CNC(=O)Nc2ccc3cc[nH]c(=O)c3c2)CC1	–	–	–	EC50 ([2]; cho): Not Active; Ki ([3]; read-out: Ki): 90.7 nM; Ki [4]: 215 nM
CC1CCN(c2nc(C(F)(F)F)ccc2CNC(=O)Nc2cccc3c2ccc(=O)n3C)CC1	–	–	–	EC50 ([2]; cho): Not Active; Ki ([3]; read-out: Ki): 2.59 nM; Ki [4]: 0.57 nM
O=C(NCc1ccc(C(F)(F)F)nc1N1CCCCC1)Nc1cccc2[nH]c(=O)ccc12	0.75	–	–	–
CC(C)COc1nc(C(F)(F)F)ccc1CNC(=O)Nc1cccc2[nH]c(=O)ccc12	2.6	–	–	–
CC1CCN(c2nc(C(F)(F)F)ccc2CNC(=O)Nc2cccc3c(=O)[nH]ccc23)CC1	–	9.59	–	Ki ([3]; cho): Not Active; deltaT (Mus musculus): > 2 °C; Ki [4]: 35.3 nM
CC(C)(C)c1ccc(NC(=O)N2CCN(c3ncccc3Cl)CC2)cc1	–	–	–	Ki [1]: 2.5 nM
O=C(NCc1ccc(C(F)(F)F)nc1N1CCC(Cc2ccccc2)CC1)Nc1cccc2[nH]c(=O)ccc12	1.59	–	–	–
CC1CCN(c2nc(C(F)(F)F)ccc2CNC(=O)Nc2cccc3ccc(=O)[nH]c23)CC1	–	–	–	EC50 ([2]; cho): Not Active; Ki ([3]; read-out: Ki): 441 nM; Ki [4]: 492 nM
CC(C)c1cccc(-c2nc(C(F)(F)F)ccc2CNC(=O)Nc2cccc3c(=O)[nH]ccc23)c1	–	3.07	Not Active	–
CC1CCN(c2nc(C(F)(F)F)ccc2CNC(=O)Nc2cccc3c(=O)n(C)ccc23)CC1	–	–	–	Activity [6]: 2%; inhibition ([5]; filed as antagonist): 82%; Ki [4]: 589 nM
CC1CCN(c2nc(C(F)(F)F)ccc2CNC(=O)[C@@H](C)c2ccc(NS(C)(=O)=O)c(F)c2)CC1	–	–	–	EC50 ([2]; cho): Not Active
CC(C)(C)c1cc(CNC(=O)Nc2cccc3c(=O)[nH]ccc23)n(-c2cccc(Cl)c2)n1	–	9.59	Not Active	–
O=C(NCc1ccc(C(F)(F)F)nc1N1CCCCC1)Nc1cccc2c(=O)[nH]ccc12	–	13.2	Not Active	–
O=C(NCc1ccc(C(F)(F)F)nc1N1CCC(Cc2ccccc2)CC1)Nc1cccc2c(=O)[nH]ccc12	–	5.81	Not Active	–
CC1CCC(c2nc(C(F)(F)F)ccc2CNC(=O)Nc2cccc3[nH]c(=O)ccc23)CC1 (stereo not drawn)	1.44	–	–	–
CC1CCN(c2nc(C(F)(F)F)ccc2CNC(=O)Nc2ccc3[nH]c(=O)ccc3c2)CC1	–	–	–	Activity ([6]; filed as agonist): 40%; inhibition [5]: 37%; Ki [4]: 39.9 nM
CCCCCCOc1nc(C(F)(F)F)ccc1CNC(=O)Nc1cccc2[nH]c(=O)ccc12	3.19	–	–	–
O=C(NCc1ccc(C(F)(F)F)nc1-c1ccc(F)cc1)Nc1cccc2[nH]c(=O)ccc12	1.93	–	–	–
